Measurements published in US7977434B2, “Polymeric hydrophobic aminonitrile quats used for bleach activation” (BASF Aktiengesellschaft, priority 2005, dated 2011).

Columns and labels:
Conditions in all cases: 25° C., 1% bleach activator, 15% by weight sodium percarbonate in color laundry detergent, 30 min wash
[1] = Launderometer test, removal of triolein stain dyed with Sudan red 7 B
Procedure: (§1) Standard test in a launderometer with 5% activator addition at 25° C. and 50° C. of tea-, red wine-, grass- and curry-stained fabric. In addition, the removal of triolein and olive oil stains from cotton fabric is investigated. To this end, triolein and olive oil are dyed with 0.1% Sudan red 7 B (=Solvent Red 19). This dye is dissolved and homogenized beforehand with gentle warming. The preparation is effected by adding dropwise with a pipette, in the course of which the test fabric is stretched. 0.1 g of the solution is added dropwise and spreads on the fabric overnight. All test specimens are determined twice.
(§2) To this end, 15% by weight of bleach (sodium percarbonate) and 1.2 and 5% by weight of the appropriate activator are mixed into a commercial color laundry detergent which is homogenized in dry form.
(§3) The bleaching experiments in the launderometer are evaluated by reflectance measurement and calculation of the bleaching action on the bleachable stains used (tea, red wine, grass, curry, triolein and olive oil). The standard deviation of the reflectance R is <1%.
(§4) Mixing of stock hardness 1 (Ca^+++Mg^++) and stock hardness 2 (NaHCO3), both 0.8 mol/l in each case. Hard water is tested before use. The water hardness is determined by using Titriplex solution. • Stock hardness 1 94.09 g of calcium chloride 2H2O and 32.53 g of magnesium chloride. […]

[2] = Launderometer bleaching test, tea stain
Procedure: as §1, with “Standard test in a launderometer with 5% activator addition at 25° C. and 50° C. of tea-, red wine-, grass- and curry-stained fabric.” left out
(§5) The bleaching experiments in the launderometer are evaluated by reflectance measurement and calculation of the bleaching action on the bleachable stains used (tea, red wine, grass, curry, triolein and olive oil).
(§6) Commercially unavailable stains such as tea, chlorophyll were premeasured individually.
as §4

[3] = Launderometer bleaching test, curry stain
Procedure: as §1, §2, §3, §4

[4] = Launderometer bleaching test, grass stain
Procedure: as §1, with “Standard test in a launderometer with 5% activator addition at 25° C. and 50° C. of tea-, red wine-, grass- and curry-stained fabric.” left out
as §5, §6, §4

[5] = Launderometer test, removal of olive oil stain dyed with Sudan red 7 B
Procedure: as §1, §2, §3, §4

[6] = Launderometer bleaching test, red wine stain
Procedure: as §1, §2
The bleaching experiments in the launderometer are evaluated by reflectance measurement and calculation of the bleaching action on the bleachable stains used (tea, red wine, grass, curry, triolein and olive oil). The standard deviation of the reflectance R is <1%. […]
Mixing of stock hardness 1 (Ca^+++Mg^++) and stock hardness 2 (NaHCO3), both 0.8 mol/l in each case. […] The water hardness is determined by using Titriplex solution. • Stock hardness 1 94.09 g of calcium chloride 2H2O and 32.53 g of magnesium chloride. […]

| SMILES | reflectance, Triolein [1] [%] | reflectance, Tea [2] [%] | reflectance, Curry [3] [%] | reflectance, Grass [4] [%] | reflectance, Olive oil [5] [%] | reflectance, Red wine [6] [%] |
| --- | --- | --- | --- | --- | --- | --- |
| C[N+]1(CC#N)CCOCC1.O=S(=O)([O-])O [BMG, methylmorpholinioacetonitrile hydrogensulfate] | 42.2 | 48.5 | 69.2 | 40.1 | 39.9 | 61.8 |
| CC(=O)N(CCN(C(C)=O)C(C)=O)C(C)=O [TAED, tetraacetylethylenediamine] | 42.6 | 34.5 | 65.1 | 39.2 | 40.0 | 58.4 |
